Test results from the supplement of paper PMC10307832.

Tests used:
Experiment in all cases: relative viability (nuclei count vs DMSO), 5 days (fraction); higher = more cells survive
MLN4924 + Foretinib = compound: NS(=O)(=O)OC[C@@H]1C[C@@H](n2ccc3c(N[C@H]4CCc5ccccc54)ncnc32)C[C@@H]1O [MLN4924] + COc1cc2c(Oc3ccc(NC(=O)C4(C(=O)Nc5ccc(F)cc5)CC4)cc3F)ccnc2cc1OCCCN1CCOCC1 [Foretinib] (partner 0.25 µM)
Method in brief: (§1)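 Medians of duplicate plates are given as relative viability. That measure is the nuclei count in treated wells divided by the count in vehicle wells. Counts were taken on 4× images of lung cancer cell lines in 1536-well plates, 5 days after pin-tool dosing the day after seeding with one drug alone or a fixed anchor-drug dose plus five library-drug doses (not always all listed) in √10 steps.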

Carboplatin + Decitabine = compound: C1CC(C1)(C(=O)O)C(=O)O.[NH2-].[NH2-].[Pt+2] [Carboplatin] + Nc1ncn([C@H]2C[C@H](O)[C@@H](CO)O2)c(=O)n1 [Decitabine] (partner 2 µM)
Method in brief: as §1

Carboplatin + OSI-027 = compound: C1CC(C1)(C(=O)O)C(=O)O.[NH2-].[NH2-].[Pt+2] [Carboplatin] + COc1cccc2cc(-c3nc([C@H]4CC[C@H](C(=O)O)CC4)n4ncnc(N)c34)[nH]c12 [OSI-027] (partner 0.5 µM)
Method in brief: as §1

GSK126 + Decitabine = compound: CC[C@H](C)N1C=C(C2=C(C=C(C=C21)C3=CN=C(C=C3)N4CCNCC4)C(=O)NCC5=C(C=C(NC5=O)C)C)C [GSK126] + Nc1ncn([C@H]2C[C@H](O)[C@@H](CO)O2)c(=O)n1 [Decitabine] (partner 2 µM)
Method in brief: as §1

| Cell Line | relative viability (MLN4924 + Foretinib; first compound 0.04 µM) | relative viability (MLN4924 + Foretinib; first compound 0.1265 µM) | relative viability (MLN4924 + Foretinib; first compound 0.4 µM) | relative viability (MLN4924 + Foretinib; first compound 1.265 µM) | relative viability (MLN4924 + Foretinib; first compound 4 µM) | relative viability (Carboplatin + Decitabine; first compound 0.08 µM) | relative viability (Carboplatin + Decitabine; first compound 0.253 µM) | relative viability (Carboplatin + Decitabine; first compound 0.8 µM) | relative viability (Carboplatin + Decitabine; first compound 2.53 µM) | relative viability (Carboplatin + Decitabine; first compound 8 µM) | relative viability (Carboplatin + OSI-027; first compound 0.08 µM) | relative viability (Carboplatin + OSI-027; first compound 0.253 µM) | relative viability (Carboplatin + OSI-027; first compound 0.8 µM) | relative viability (Carboplatin + OSI-027; first compound 2.53 µM) | relative viability (Carboplatin + OSI-027; first compound 8 µM) | relative viability (GSK126 + Decitabine; first compound 0.08 µM) | relative viability (GSK126 + Decitabine; first compound 0.253 µM) | relative viability (GSK126 + Decitabine; first compound 0.8 µM) | relative viability (GSK126 + Decitabine; first compound 2.53 µM) | relative viability (GSK126 + Decitabine; first compound 8 µM) |
| --- | --- | --- | --- | --- | --- | --- | --- | --- | --- | --- | --- | --- | --- | --- | --- | --- | --- | --- | --- | --- |
| LOU-NH91 | 0.945 | 0.952 | 0.896 | 0.539 | 0.413 | 0.873 | 0.832 | 0.806 | 0.792 | 0.77 | 0.811 | 0.72 | 0.75 | 0.761 | 0.73 | 0.831 | 0.813 | 0.838 | 0.793 | 0.823 |
| LU99A | 0.531 | 0.365 | 0.314 | 0.188 | 0.236 | 0.862 | 0.869 | 0.864 | 0.731 | 0.724 | 0.307 | 0.299 | 0.269 | 0.3 | 0.283 | 0.986 | 0.915 | 1.03 | 0.916 | 0.999 |
| LXF-289 | 0.846 | 0.564 | 0.565 | 0.188 | 0.0965 | 0.395 | 0.407 | 0.382 | 0.358 | 0.31 | 0.882 | 0.871 | 0.816 | 0.828 | 0.716 | 0.38 | 0.36 | 0.395 | 0.388 | 0.374 |
| NCI-H23 | 0.968 | 0.839 | 0.767 | 0.285 | 0.184 | 0.377 | 0.266 | 0.298 | 0.291 | 0.276 | 0.843 | 0.599 | 0.671 | 0.575 | 0.435 | 0.314 | 0.337 | 0.3 | 0.268 | 0.334 |
| NCI-H522 | – | – | – | – | – | 0.646 | 0.685 | 0.614 | 0.655 | 0.644 | 0.741 | 0.711 | 0.567 | 0.685 | 0.7 | 0.717 | 0.587 | 0.716 | 0.581 | 0.683 |
| NCI-H1299 | 1.01 | 0.82 | 0.499 | 0.33 | 0.176 | – | – | – | – | – | – | – | – | – | – | – | – | – | – | – |
| NCI-H1563 | 1.16 | 1.21 | 0.744 | 0.535 | 0.55 | – | – | – | – | – | 0.821 | 0.751 | 0.773 | 0.754 | 0.775 | – | – | – | – | – |
| NCI-H1623 | 0.704 | 0.536 | 0.468 | 0.289 | 0.294 | – | – | – | – | – | 0.481 | 0.404 | 0.455 | 0.41 | 0.385 | – | – | – | – | – |
| NCI-H1648 | – | – | – | – | – | 0.542 | 0.475 | 0.542 | 0.435 | 0.46 | 0.238 | 0.258 | 0.247 | – | 0.265 | 0.561 | 0.562 | 0.554 | 0.633 | 0.492 |
| NCI-H1703 | 0.267 | 0.226 | 0.19 | 0.173 | 0.248 | – | – | – | – | – | – | – | – | – | – | – | – | – | – | – |
| NCI-H1792 | – | – | – | – | – | 0.475 | 0.562 | 0.497 | 0.372 | 0.291 | 0.724 | 0.691 | 0.824 | 0.679 | 0.566 | 0.716 | 0.546 | 0.498 | 0.412 | 0.575 |
| NCI-H2228 | 1.07 | 0.69 | 0.512 | 0.302 | 0.147 | – | – | – | – | – | 0.685 | 0.63 | 0.597 | 0.64 | 0.349 | – | – | – | – | – |
